Assay results reported in publication PMC7070283, “Effect of Copper on the Mitochondrial Carnitine/Acylcarnitine Carrier Via Interaction with Cys136 and Cys155. Possible Implications in Pathophysiology” (Molecules, 2020).

Target: T1, native carnitine/acylcarnitine carrier (CAC) (Rattus norvegicus, UniProt P97521)
T1 construct: the native protein extracted from rat liver mitochondria; from tissue; host or cells: rat liver mitochondria
T1 sequence (P97521 1-301): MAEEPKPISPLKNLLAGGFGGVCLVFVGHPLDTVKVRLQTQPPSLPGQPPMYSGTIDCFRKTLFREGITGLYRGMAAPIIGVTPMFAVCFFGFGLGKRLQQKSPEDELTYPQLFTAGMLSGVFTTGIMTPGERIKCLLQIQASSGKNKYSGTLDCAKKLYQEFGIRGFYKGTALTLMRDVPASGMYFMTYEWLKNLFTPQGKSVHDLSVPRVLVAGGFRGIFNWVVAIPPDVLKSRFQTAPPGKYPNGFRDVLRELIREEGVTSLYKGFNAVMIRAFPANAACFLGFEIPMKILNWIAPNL
Test: [3H]carnitine/carnitine antiport in proteoliposomes reconstituted with native CAC extracted from rat liver mitochondria
Type: biochemical
Settings: intact rat liver mitochondria incubated 1 h with CuCl2 (50 µM) or GSH (5 mM), then CAC extracted and reconstituted
Description: Figure 2 Dose-response analysis of copper effect on the native CAC. Proteoliposomes reconstituted with the CAC extracted from rat liver mitochondria were incubated with (○) CuCl2 or (●) CuCl at the indicated concentrations for 1 min, and then the transport activity was measured by adding 0.1 mM [^3H]carnitine and stopped after 10 min as described in Materials and Methods. Percent of residual activity with respect to the control, without copper treatment, is reported. The values are the means ± SD from three independent experiments.
The recombinant CAC (WT and mutant) proteins were used for proteoliposome formation as previously described. For the experiments with the native protein, rat liver mitochondria were first purified using the standard procedure of cell disruption and differential centrifugation. […]
Transport was started by adding 0.1 mM [^3H]carnitine to proteoliposome samples and, at the indicated time interval stopped by 1.5 mM NEM. […] After terminating the transport reaction, the external substrate was removed by chromatography on Sephadex G-75 columns, and the intraliposomal radioactivity was measured. Transport was measured at 25 °C. […] Transport rates were measured in 5 min, i.e., within the initial linear range of the time course.

N[C@@H](CCC(=O)N[C@@H](CS)C(=O)NCC(=O)O)C(=O)O [GSH, reduced glutathione]
effect on transport with respect to protein from untreated mitochondria: did not exert any appreciable effect
